In patent publication US12201611B2, “Composition comprising high purity pyrrole derivative and method for preparation thereof” (Zydus Lifesciences Limited, priority 2020, dated 2025):

Experiments:
[1] = Stability data at 25° C. ± 2° C. and 60% ± 5% relative humidity (six months); type: physicochemical; conditions: 60% ± 5% RH
Experimental: (§1) As used herein, the term “prolonged storage” refers to storage for up to 6 months and different stability conditions refers to storage at 25° C. temperature and 60% relative humidity; or at 40° C. temperature and 75% relative humidity.
(§2) In another general aspect, there is provided a stable composition of Saroglitazar magnesium, wherein the composition contains Saroglitazar magnesium having purity of about 99.0% or more, by weight, by area percentage of HPLC, and one or more of the aldehyde compound of Formula (II), the diketo oxirane compound of Formula (III), the hydroxy methyl compound of Formula (IV), or the dimer compound of Formula (V) in an amount of about 0.15%, or less, by weight, relative to saroglitazar magnesium, on prolonged storage and under different stability conditions i.e. 40° C.±2° C. temperature and 75%±5% relative humidity and at 25° C.±2° C. temperature and 60±5% relative humidity as outlined by the six months' stability data as shown in Table-2 and 3.
(§3) The purity of the samples of Saroglitazar or salts thereof including magnesium and SMBA salt is measured by area percentage of HPLC using following conditions:
(§4) Equipment: Shimadzu LC2020CHT HPLC system or equivalent
(§5) Column: YMC-Pack Pro C18 ([…]×4.0 mm, 3 μm)
(§6) Detector: UV-VIS detector or PDA detector
(§7) Column Oven Temp.: 25° C.

[2] = Stability data at 40° C. ± 2° C. and 75% ± 5% relative humidity (six months); type: physicochemical; conditions: 75% ± 5% RH
Experimental: as §1, §2, §3, §4, §5, §6, §7

## 2-ethoxy-3-(4-(2-(2-methyl-5-(4-(methylthio)phenyl)-1H-pyrrol-1-yl)ethoxy)phenyl)propanoate [Saroglitazar magnesium]
[1]; 1 month
  LOD: 0.43 % w/w
  Related Substance by HPLC: Formula II: 0.01 % w/w
  Related Substance by HPLC: Formula V: 0.12 % w/w
  Related Substance by HPLC: Total impurities: 0.12 % w/w
[1]; 2 month
  LOD: 0.64 % w/w
  Related Substance by HPLC: Formula II: 0.01 % w/w
  Related Substance by HPLC: Formula V: 0.12 % w/w
  Related Substance by HPLC: Total impurities: 0.12 % w/w
[1]; 3 months
  LOD: 0.27 % w/w
  Related Substance by HPLC: Formula II: 0.01 % w/w
  Related Substance by HPLC: Formula V: 0.12 % w/w
  Related Substance by HPLC: Total impurities: 0.12 % w/w
[1]; 6 months
  LOD: 0.35 % w/w
  Related Substance by HPLC: Formula V: 0.12 % w/w
  Related Substance by HPLC: Total impurities: 0.12 % w/w
[1]; Initial
  LOD: 0.51 % w/w
  Related Substance by HPLC: Formula II: 0.01 % w/w
  Related Substance by HPLC: Formula V: 0.11 % w/w
  Related Substance by HPLC: Total impurities: 0.18 % w/w
[2]; 1 month
  LOD: 0.48 % w/w
  Related Substance by HPLC: Formula II: 0.01 % w/w
  Related Substance by HPLC: Formula V: 0.12 % w/w
  Related Substance by HPLC: Total impurities: 0.12 % w/w
[2]; 2 month
  LOD: 0.44 % w/w
  Related Substance by HPLC: Formula II: 0.01 % w/w
  Related Substance by HPLC: Formula V: 0.12 % w/w
  Related Substance by HPLC: Total impurities: 0.12 % w/w
[2]; 3 months
  LOD: 0.30 % w/w
  Related Substance by HPLC: Formula II: 0.01 % w/w
  Related Substance by HPLC: Formula V: 0.11 % w/w
  Related Substance by HPLC: Total impurities: 0.12 % w/w
[2]; 6 months
  LOD: 0.24 % w/w
  Related Substance by HPLC: Formula V: 0.12 % w/w
  Related Substance by HPLC: Total impurities: 0.12 % w/w
[2]; Initial
  LOD: 0.51 % w/w
  Related Substance by HPLC: Formula II: 0.01 % w/w
  Related Substance by HPLC: Formula V: 0.11 % w/w
  Related Substance by HPLC: Total impurities: 0.18 % w/w
